In patent US10226477B2, “Composition for preventing, improving or treating postmenopausal osteoporosis comprising scopolin” (DONG WOO DANG CO., LTD, priority 2016, dated 2019):
“Also recorded” adds a separate entry of the source.

Experiments:
[1] = system: ddY female ovariectomized (OVX)-mouse; assay: Bone mineral density (PIXImus) and femoral micro-CT in ovariectomized menopausal mouse model; type: in vivo; settings: oral, 12 weeks, scopolin 20 and 40 mg/kg/day, SrCl2 20 mg/kg/day; for decrease in the bone mineral density caused by the menopause: p<0.05 vs. OVX
Protocol: (§1) To evaluate in vivo efficacy of scopolin, a 10-week-old ddY female ovariectomized (OVX)-mouse was used a menopausal animal model (ovariectomy was performed on the 8-week-old mouse, and the mouse was additionally raised for 2 weeks). Regarding control groups, a Shame mouse that was subjected to laparotomy, but was not subjected to ovariectomy, (normal control group), and an OVX mouse to which physiological saline was added (negative control group) were used, and in addition, a strontium chloride (SrCl2) mouse in which 20 mg/kg/day of SrCl2, which is a compound having an effect in enhancing bone mineral density, was administered by oral injection to an OVX mouse was used as a positive control group in the test for bone mineral density improvement efficacy. Here, an experimental group was prepared by administering scopolin at a dose of 20 mg/kg/day and 40 mg/kg/day by oral injection. The 10-week-old sham-operated mouse and the ddY OVX-mouse were purchased at Central Lab. Animal Inc., and then, were moved to a clean animal breeding room after spending 1 week of purification period in the laboratory animal quarantine room. These mice were individually weighed to be classified into experimental groups without a statistically significant difference in weight. Scopolin used in the experiment was dissolved in 1% DMSO aqueous solution to be prepared as a test solution. In order to bring these mice in the laboratory animal center, a radiation irradiation company, SOYAGREENTEC Inc., was commissioned for sterilization operations using gamma irradiation.
At the beginning of the animal experiment, a PIXImus bone densitometer was used to measure initial bone mineral density (BMD) of the mice. The mice were anesthetized by injecting 50 μl of a mixed anesthetic of zoletil and rompun (a mixture of zoletil and rompun at a ratio of 1:2 was diluted with physiological saline at a ratio of 2:3), and then, were fixed to a bone mineral density measuring frame to measure bone mineral density. After 6 weeks and 12 weeks of the injection of scopolin to the mice, the bone mineral density of the mice was measured by using the PIXImus bone densitometer. After the completion of the experiment during 12 weeks, blood sampling and removal of femoral bone were performed, and micro-CT was taken thereon. In the micro-CT images, bone volume ratios (BV ratios, %), trabecular thickness (Tb.Th), trabecular number (Tb.N), and trabecular spacing (Tb.Sp) were numeralized and analyzed.

[2] = system: ddY female ovariectomized (OVX)-mouse; assay: Serum OPG and RANKL levels by ELISA in ovariectomized menopausal mouse model; type: in vivo; settings: oral, 12 weeks, scopolin 20 and 40 mg/kg/day, SrCl2 20 mg/kg/day; for decrease in the serum level of OPG (bone formation marker) / increase in the serum level of RANKL (bone resorption marker): p<0.05 vs. OVX
Protocol: as §1
Next, the changes of blood metabolism markers in the blood were examined. After 12 weeks of the experiment performed on the postmenopausal mouse model, the blood sampling was performed thereon, and serum samples were collected therefrom. The serum protein levels of osteoprotegerin (OPG), which is a bone formation marker, and receptor activator of nuclear factor-kappa B ligand (RANKL), which is a bone resorption marker, were analyzed by ELISA. […] However, in the experimental groups to which scopolin was administered at a dose of 20 mg/kg/day and 40 mg/kg/day for 12 weeks, it was confirmed that the decrease in the level of OPG, which is the bone formation marker in the blood, the increase in the level of RANKL, which is the bone resorption marker, and the decrease in the OPG/RANKL ratios were inhibited (see FIGS. 9A, 9B, and 9C). Such results were similar with those obtained by the SrCl2 mouse which is the positive control group. In addition, in the statistical analysis, the significance of the efficacy of scopolin was also confirmed (*: p<0.05 vs. OVX negative control group).

MC3T3-E1 cells [3] = assay: Cytotoxicity of scopolin by cell proliferation analysis (EZ-Cytox, water-soluble tetrazolium salt); type: cell-based; settings: 1 μg/ml, 5 μg/ml and 10 μg/ml, cultured 2 days, vs. physiological saline control
Protocol: Cytotoxicity of scopolin was evaluated by cell proliferation analysis using an EZ-Cytox Enhanced Cell Viability Assay Kit using a water-soluble tetrazolium salt. In detail, MC3T3-E1 cells (3×10^3 cells/well), which are osteoblasts, were cultured in an alpha-minimum essential medium (α-MEM) supplemented with 10% bovine fetus serum, 1 mM sodium pyruvate, 100 unit/L penicillin, and 100 mg/L streptomycin at a temperature of 37° C. under conditions provided with 5% CO2, and then, the cells were treated with scopolin at three different concentrations (1 μg/ml, 5 μg/ml, and 10 μg/ml) and cultured for 2 days. Next, the tetrazolium salt was applied to each of the cultured cells and a sample, followed by being cultured at a temperature of 37° C. for 2 hours, and then, absorbance thereof was measured at a wavelength of 450 nm.

MC3T3-E1 cells [4] = assay: Osteoblast differentiation: alkaline phosphatase (ALP) activity; type: cell-based
Protocol: The efficacy of scopolin on the differentiation of osteoblasts was evaluated by using the MC3T3-E1 cells. Ascorbic acid (50 μg/ml) and β-glycerophosphate (10 mM), which are osteoblast inducers, were added to the MC3T3-E1 cells, to thereby induce the differentiation for 3 days. Then, the resulting cells were treated with scopolin. Scopolin was dissolved in 1% dimethyl sulfoxide (DMSO) aqueous solution, and then, was applied to the MC3T3-E1 cells at concentrations of 1 μg/ml (Sco1), 5 μg/ml (Sco5), and 10 μg/ml (Sco10). The resulting cells were cultured for additional 48 hours. As a control group, cells were cultured in the same amount of 1% DMSO aqueous solution in which scopolin was not treated. To determine the efficacy of scopolin on the differentiation of osteoblasts, the activity of alkaline phosphatase (ALP) was measured. In detail, the cells that were washed using physiological saline and dissolved using a lytic agent was treated with p-nitrophenyl phosphate, which is a substrate of ALP, and then, cultured at a temperature of 37° C. for 1 hour. Subsequently, 0.5N NaOH, which is a reaction terminating solution, was added the cultured cells, and then, absorbance thereof was measured at a wavelength of 405 nm.

MC3T3-E1 cells [5] = assay: Osteoblast differentiation: ALP staining; type: cell-based; settings: 5 μg/ml
MC3T3-E1 cells [6] = assay: Mineralization of osteoblasts by Alizarin Red S staining; type: cell-based; settings: 5 μg/ml
Protocol: The mineralization of osteoblasts was analyzed by an Alizarlin red S staining method after experimental groups and a control group were each treated with 5 μg/ml of scopolin and cultured. […] That is, it was confirmed that scopolin was effective in stimulating the differentiation of osteoblasts.

SMILES | increase in trabecular spacing (Tb.Sp) [1] | low density of the bone structure (micro-CT images) [1] | reduction in BV ratios (bone volume ratio) [1] | reduction in trabecular number (Tb.N) [1] | reduction in trabecular thickness (Tb.Th) [1] | decrease in the bone mineral density caused by the menopause [1] | decrease in the OPG/RANKL ratios [2] | decrease in the serum level of OPG (bone formation marker) [2] | increase in the serum level of RANKL (bone resorption marker) [2] | effect on the proliferation of the MC3T3-E1 cells (cytotoxicity) (MC3T3-E1 cells [3]) | differentiation of osteoblasts (ALP activity) (MC3T3-E1 cells [4]; 5 μg/ml or 10 μg/ml, 48 hours after 3 days induction, p<0.05 vs. negative control) | stimulating osteoblast differentiation (overall conclusion) (MC3T3-E1 cells [4]; MC3T3-E1 cells, 1-10 μg/ml) | ALP staining (MC3T3-E1 cells [5]) | mineralization (Alizarin Red S staining) (MC3T3-E1 cells [6])
[Cl-].[Cl-].[Sr+2] [SrCl2, strontium chloride, reference compound] | similar | similar | similar | similar | similar | similar | similar | similar | similar |  |  |  |  | 
COc1cc2ccc(=O)oc2cc1O[C@@H]1O[C@H](CO)[C@@H](O)[C@H](O)[C@H]1O [scopolin] | inhibited | significantly inhibits; also recorded: inhibited | inhibited | inhibited | inhibited | significantly inhibits; also recorded: inhibited | inhibited | significantly inhibits; also recorded: inhibited | significantly inhibits; also recorded: inhibited | not toxic; also recorded: no adverse effect | statistically significantly increased | significant effect; also recorded: effective | increased | increased
